The values that follow come from US20170107579A1, “E1 ENZYME MUTANTS AND USES THEREOF” (Millennium Pharmaceuticals, Inc., priority 2011, published 2017).

Experiment [1] concerns MLN4924 resistant NCI-H460 clones. Kind of experiment: Cell viability assay, 96 hours ATPlite, resistant clones. Type of experiment: cell-based. The conditions noted are these: Homo sapiens; two NCI-H460 resistant clones. As for the experimental part:
FIG. 6A. Calu-6 and FIG. 6B.
Cell line cultures were maintained using appropriate cell culture media as recommended by ATCC and as previously reported (Soucy et al., 2009, Milhollen et al., 2010). […] Cell viability assays completed using 96 hours ATPlite assay (PerkinElmer) as previously reported (Soucy et al., 2009).

Experiment [2] has as its system HCT-116 WT, HCT-116.1 A171T and HCT-116.4 C324Y cells. Kind of experiment: Drug efflux inhibitor co-incubation, ATPlite viability assay. It is filed as cell-based. As to conditions: efflux inhibitors at highest non toxic concentration, 96 hours. Here is the method: Treatment of cells with efflux inhibitors. FIG. 8A. […] Co-incubation studies were performed with various inhibitors of drug efflux at their highest non toxic concentration.
Diypridamole (Sigma), MK571 (Tocris), GF918, K0143 (Tocris) and LY5979 were obtained from commercial sources indicated.

A further experiment deals with T1, A573D UBA6 (Homo sapiens, UniProt A0AVT1, A573D).
T1 construct: His6 (N); made in house; host or cells: Sf9 insect cells (baculovirus, single infection)
Briefly: UBA6 pyrophosphate exchange assay. It is filed as biochemical. The conditions noted are these: A573D UBA6 5 nM, 1 mM ATP, 4 μM ubiquitin. Here is the method: (§1) ATP and PPi titrations were run under similar condition, except ubiquitin was fixed at 4 μM. […] ATP standard curve.
(§2) Reactions were initiated with addition of 4 μM ubiquitin.

The next experiment concerns the target T2, A573T UBA6 (Homo sapiens, UniProt A0AVT1, A573T).
T2 construct: His6 (N); made in house; host or cells: Sf9 insect cells (baculovirus, single infection)
Briefly: UBA6 pyrophosphate exchange assay. Type of experiment: biochemical. As to conditions: A573T UBA6 5 nM, 1 mM ATP, 4 μM ubiquitin. Here is the method: as §1, §2

Another experiment deals with T3, wild-type UBA6 (Homo sapiens, UniProt A0AVT1).
T3 construct: His6 (N); made in house; host or cells: Sf9 insect cells (baculovirus, single infection)
Briefly: UBA6 pyrophosphate exchange assay. Type of experiment: biochemical. As to conditions: wt UBA6 5 nM, 1 mM ATP, 4 μM ubiquitin, 60 minutes at 30° C. Here is the method:
as §1, §2

The subject of experiment [3] is NEDD8 pathway (NEDD8-cullin, NEDD8-NAEβ, NEDD8-Ubc12, CDT1, NRF2). Briefly: Western blot pathway analysis of treated cells. Type of experiment: cell-based. Here is the method: Whole cell extracts were prepared and immunoblotting assays performed as previously described (Soucy, 2009) with primary antibodies as follows: CDT1, NRF2, NEDD8, NAEβ, UBC12 and 4924-NEDD8-ADS (MIL22) (Millennium); UBC10 (Boston Biochem); K48 (Millipore); NAE1 (sigma) and tubulin (Santa Cruz). Secondary Alexa-680-labelled antibodies to rabbit/mouse IgG (Molecular Probes) were used as appropriate and blots were imaged using the Li-Cor Odyssey Infared Imaging system.
The reduced effect on NAE inhibition was confirmed by a reduced accumulation of two CRL substrates, Nrf2 and Cdt1.
Background: In western blotting, separated proteins are transferred to a membrane and probed.

The test system of experiment [4] is HCT-116 WT, A171T and G201V cells. Kind of experiment: Cell cycle analysis (propidium iodide, flow cytometry). The conditions noted are these: HCT-116 resistant A171T and G201V clones, 1 μM, 24 hours. It is filed as cell-based. Here is the method: Cell cycle analysis. FIG. 11A. HCT-116 WT, FIG. 11B. HCT-116.1 A171T and FIG. 11C.
Logarithmically growing cells were incubated with either MLN4924 or DMSO for the times indicated. Collected cells were fixed in 70% ethanol and stored overnight at 4° C. Fixed cells were centrifuged to remove ethanol, and the pellets were resuspended in propidium iodide and RNaseA in PBS for 1 h on ice protected from light. Cell-cycle distributions were determined using flow cytometry (FACS Calibur, Becton Dickinson) and analysed using Winlist software (Verity).

The test system of another experiment is A171T HCT-116 xenografts. Briefly: Antitumor study, re-transplanted resistant xenograft in nude rats. Type of experiment: in vivo, rat. As to conditions: A171T HCT-116 xenograft, one cycle of 150 mg/kg (days 1, 4, 8, 11). Here is the method: (§3) Female NCr Nude rats (Taconic Farms) aged 6-8 weeks were inoculated with 10×10^6 HCT-116 cells subcutaneously in the right flank. Tumor growth was measured using digital vernier calipers. […] Rats received one dose per day biweekly for 2 weeks (days 1, 4, 8, and 11) of a 21-day therapy cycle. After three cycles of treatment refractory tumors were collected. Female CB-17 SCID mice (Charles River Laboratories) aged 6-8 weeks were inoculated with 2×10^6 THP-1 or OCI-Ly10 cells with Matrigel™ support (1:1, v/v). […] Mice received two doses per day bi-weekly (days 1, 4, 8, 11, 15, 18, 22 . . . ) until tumors reached approximately 500-800 mm^3. Tumors were then collected and one 40-50 mg piece of tumor was subcutaneously implanted using a 13 gauge trocar needle into 6 to 8 naïve animals for further study. In addition tumor DNA was extracted for mutational analysis as described in supplementary information.
The A171T NAEβ mutation was still present in this resistant xenograft model as confirmed by both Sanger and Sequenom methodologies.

Experiment [5] has as its system NEDD8-cullin levels in HCT-116 WT and A171T xenografts. Briefly: Pharmacodynamic marker analysis in tumor xenografts. It is filed as in vivo, rat. As to conditions: single dose of 150 mg/kg. The text has this:
(§4) The relative levels of NEDD8-cullin and pIxBa were estimated by quantitative immunoblot analysis (Li-cor Odyssey system) using Alexa680-labelled anti-IgG (Molecular Probes) as the secondary antibody. For the analysis of CDT1 and cleaved caspase-3 levels in tumor sections, formalin-fixed, paraffin-embedded tumour sections were stained with the relevant antibodies, amplified with HRP-labelled secondary antibodies and detected with the ChromoMap DAB Kit (Ventana Medical Systems). Slides were counterstained with haematoxylin. Images were captured using an Eclipse E800 microscope (Nikon Instruments) and Retiga EXi colour digital camera (QImaging) and processed using Metamorph software (Molecular Devices). CDT1 and cleaved caspase-3 are expressed as a function of the DAB signal area.
The digests were analyzed on a LC/MS/MS system as previously described (Brownell et al., 2010).

Experiment [6] deals with OCI-Ly10 DLBCL xenografts. Kind of experiment: Antitumor study, subcutaneous xenografts in CB-17 SCID mice. Type of experiment: in vivo, mouse. As to conditions: 90 mg/kg BID bi-weekly. Here is the method: as §3
The next experiment has as its system THP-1 AML xenografts. The description is as above. It is filed as in vivo, mouse. The conditions noted are these: THP-1 xenografts, 90 mg/kg BID, biweekly. Here is the method: as §3
The subject of experiment [7] is NEDD8-cullin levels in A171T THP-1 xenografts. Kind of experiment: Pharmacodynamic marker analysis in tumor xenografts. It is filed as in vivo, mouse. The conditions noted are these: single dose 90 mg/kg.
Source text: as §4

Bounds are passed on as bounds.

By EC50 is commonly meant the midpoint of the concentration-response curve. Higher therefore signals a need for much substance. What is called IC50 is the point on the concentration scale where inhibition reaches its midpoint. The low end stands for greater potency in that assay, the high end for weaker potency in that assay.

T1 sequence (A0AVT1 whole entry A573D): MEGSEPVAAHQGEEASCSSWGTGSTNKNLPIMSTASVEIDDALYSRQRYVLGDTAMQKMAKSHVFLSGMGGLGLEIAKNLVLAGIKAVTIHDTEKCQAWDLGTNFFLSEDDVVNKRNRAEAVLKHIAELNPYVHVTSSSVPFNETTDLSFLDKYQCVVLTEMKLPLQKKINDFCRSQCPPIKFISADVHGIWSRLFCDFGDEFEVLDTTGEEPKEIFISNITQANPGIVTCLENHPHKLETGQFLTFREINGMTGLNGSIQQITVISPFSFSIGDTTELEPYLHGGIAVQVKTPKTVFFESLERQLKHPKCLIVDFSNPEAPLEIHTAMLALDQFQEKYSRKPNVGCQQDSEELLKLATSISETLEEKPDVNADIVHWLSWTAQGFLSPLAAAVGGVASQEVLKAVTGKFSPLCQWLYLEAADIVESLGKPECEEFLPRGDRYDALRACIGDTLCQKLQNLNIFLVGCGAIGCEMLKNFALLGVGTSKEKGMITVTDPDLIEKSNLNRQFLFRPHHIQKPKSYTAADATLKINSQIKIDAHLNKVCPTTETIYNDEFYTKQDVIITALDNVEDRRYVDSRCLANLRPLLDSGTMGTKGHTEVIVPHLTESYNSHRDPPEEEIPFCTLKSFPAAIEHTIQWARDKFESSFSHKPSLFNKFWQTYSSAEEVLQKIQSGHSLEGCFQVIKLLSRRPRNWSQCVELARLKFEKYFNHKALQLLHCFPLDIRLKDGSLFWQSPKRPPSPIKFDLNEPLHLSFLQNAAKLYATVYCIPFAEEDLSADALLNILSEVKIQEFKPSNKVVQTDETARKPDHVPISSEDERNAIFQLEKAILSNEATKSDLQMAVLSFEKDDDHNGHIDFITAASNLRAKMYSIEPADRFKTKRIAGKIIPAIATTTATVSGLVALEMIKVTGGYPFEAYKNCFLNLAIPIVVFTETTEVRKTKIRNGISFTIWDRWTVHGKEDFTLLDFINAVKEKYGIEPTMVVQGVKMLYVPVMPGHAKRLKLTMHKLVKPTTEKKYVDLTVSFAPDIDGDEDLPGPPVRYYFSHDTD
T2 sequence (A0AVT1 whole entry A573T): as the sequence (A0AVT1 whole entry A573D) above, with D573T counted along it
T3 sequence (A0AVT1 whole entry): as the sequence (A0AVT1 whole entry A573D) above, with D573A counted along it

`NS(=O)(=O)OC[C@@H]1C[C@@H](n2ccc3c(N[C@H]4CCc5ccccc54)ncnc32)C[C@@H]1O` [MLN4924, ((1S,2S,4R)-4-{4-[(1S)-2,3-dihydro-1H-inden-1-ylamino]-7H-pyrrolo[2,3-d]pyrimidin-7-yl}-2-hydroxycyclopentyl)methyl sulphamate] had an EC50 in experiment [1] greater than 10 µM. Moreover, the “MLN4924 activity on co-incubation with drug efflux inhibitors” value in [2] is listed as “unaffected”. Besides, the IC50 against A573D UBA6 was greater than 100 µM; at A573T UBA6, greater than 100 µM; on wild-type UBA6, 6.2 ± 0.8 µM. For the same molecule, in [3] (HCT-116 A171T and G201V clones compared to WT cells), the “inhibition of NEDD8 conjugation to NAEB, UBC12 and the cullin proteins” value is “reduced effect of inhibition”. In experiment [3] (NCI-H460 A171D and Calu-6 N209K clones), the “effect on the neddylation pathway and CRL substrate accumulation” value is listed as “reduced potency”. Further, in experiment [4], the cell cycle distribution result is reported as “not significantly altered”. In the experiment on A171T HCT-116 xenografts, this molecule yielded a tumor growth inhibition of 38%. In addition, in experiment [5] (A171T HCT-116 resistant model), the “time of maximal inhibition of NEDD8-cullin levels post-dose” value stood at 8 h. Further, in [5] (WT HCT-116 xenografts), the “time of maximal inhibition of NEDD8-cullin levels post dose” value amounted to 1 h. The antitumor effect entry in experiment [6] is “tumor regressions”; with THP-1 AML xenografts, “uniform tumor regressions”. Also, the “inhibition of NEDD8-cullin levels” value in experiment [7] was “minimal inhibition”.
